The target in this test is Leucine-rich repeat serine/threonine-protein kinase 2 (Homo sapiens, UniProt Q5S007). As to the kind of experiment: Biochemical Assay. The protocol:
The protocol for basic TR-FRET LanthaScreen Tb Kinase Activity Assay inhibitor studies were as follows. LanthaScreen Kinase Activity Assays (ThermoFisher/USA) to evaluate inhibitors were performed by addition of 100 nL of test compound in corresponding DMSO dilutions/5 μL of kinase/fluorescein-ERM(LRRKtide) peptide mixture, 5 μL of ATP into 384 well small volume plates. After incubation for 120 minutes at room temperature, the detection reagents containing Tb-anti-pLRRKtide antibody were added to monitor phosphrylation level of peptide. Then, after 60 min minutes incubation at room temperature plates were read in Envision. Data analysis of emission ratios was according to LanthaScreen Tb Kinase Activity Assay protocol.Kinase and assay components were adjusted to final concentrations according to the kit protocol. For LRRK2: 2 nM wt human LRRK2, catalytic site, catalytic site (ThermoFisher/USA), 400 nM peptide, 38 μM ATP in 1× Kinase Buffer A.Basic protocol for TR-FRET LanthaScreen Tb Kinase Activity Assay inhibitor studies involved two steps:Enzymatic step: Addition of 100 nL of test compound in corresponding DMSO dilutions, 5 μL of kinase/substrate mixture, 5 μL of ATP into 384 well small volume plates. Incubation for 120 minutes at room temperature.Detection step: Addition of 10 μL EDTA & antibody, read plate after 60 minutes. […]

Drawing on BindingDB's records for patent US20240174647 (Neuron23, 2024), this text covers IC50 for 1 molecule.

Structures are written as SMILES. A value given as a limit tells only on which side of the number the result lay.

Sequence of Leucine-rich repeat serine/threonine-protein kinase 2 (Q5S007 whole entry): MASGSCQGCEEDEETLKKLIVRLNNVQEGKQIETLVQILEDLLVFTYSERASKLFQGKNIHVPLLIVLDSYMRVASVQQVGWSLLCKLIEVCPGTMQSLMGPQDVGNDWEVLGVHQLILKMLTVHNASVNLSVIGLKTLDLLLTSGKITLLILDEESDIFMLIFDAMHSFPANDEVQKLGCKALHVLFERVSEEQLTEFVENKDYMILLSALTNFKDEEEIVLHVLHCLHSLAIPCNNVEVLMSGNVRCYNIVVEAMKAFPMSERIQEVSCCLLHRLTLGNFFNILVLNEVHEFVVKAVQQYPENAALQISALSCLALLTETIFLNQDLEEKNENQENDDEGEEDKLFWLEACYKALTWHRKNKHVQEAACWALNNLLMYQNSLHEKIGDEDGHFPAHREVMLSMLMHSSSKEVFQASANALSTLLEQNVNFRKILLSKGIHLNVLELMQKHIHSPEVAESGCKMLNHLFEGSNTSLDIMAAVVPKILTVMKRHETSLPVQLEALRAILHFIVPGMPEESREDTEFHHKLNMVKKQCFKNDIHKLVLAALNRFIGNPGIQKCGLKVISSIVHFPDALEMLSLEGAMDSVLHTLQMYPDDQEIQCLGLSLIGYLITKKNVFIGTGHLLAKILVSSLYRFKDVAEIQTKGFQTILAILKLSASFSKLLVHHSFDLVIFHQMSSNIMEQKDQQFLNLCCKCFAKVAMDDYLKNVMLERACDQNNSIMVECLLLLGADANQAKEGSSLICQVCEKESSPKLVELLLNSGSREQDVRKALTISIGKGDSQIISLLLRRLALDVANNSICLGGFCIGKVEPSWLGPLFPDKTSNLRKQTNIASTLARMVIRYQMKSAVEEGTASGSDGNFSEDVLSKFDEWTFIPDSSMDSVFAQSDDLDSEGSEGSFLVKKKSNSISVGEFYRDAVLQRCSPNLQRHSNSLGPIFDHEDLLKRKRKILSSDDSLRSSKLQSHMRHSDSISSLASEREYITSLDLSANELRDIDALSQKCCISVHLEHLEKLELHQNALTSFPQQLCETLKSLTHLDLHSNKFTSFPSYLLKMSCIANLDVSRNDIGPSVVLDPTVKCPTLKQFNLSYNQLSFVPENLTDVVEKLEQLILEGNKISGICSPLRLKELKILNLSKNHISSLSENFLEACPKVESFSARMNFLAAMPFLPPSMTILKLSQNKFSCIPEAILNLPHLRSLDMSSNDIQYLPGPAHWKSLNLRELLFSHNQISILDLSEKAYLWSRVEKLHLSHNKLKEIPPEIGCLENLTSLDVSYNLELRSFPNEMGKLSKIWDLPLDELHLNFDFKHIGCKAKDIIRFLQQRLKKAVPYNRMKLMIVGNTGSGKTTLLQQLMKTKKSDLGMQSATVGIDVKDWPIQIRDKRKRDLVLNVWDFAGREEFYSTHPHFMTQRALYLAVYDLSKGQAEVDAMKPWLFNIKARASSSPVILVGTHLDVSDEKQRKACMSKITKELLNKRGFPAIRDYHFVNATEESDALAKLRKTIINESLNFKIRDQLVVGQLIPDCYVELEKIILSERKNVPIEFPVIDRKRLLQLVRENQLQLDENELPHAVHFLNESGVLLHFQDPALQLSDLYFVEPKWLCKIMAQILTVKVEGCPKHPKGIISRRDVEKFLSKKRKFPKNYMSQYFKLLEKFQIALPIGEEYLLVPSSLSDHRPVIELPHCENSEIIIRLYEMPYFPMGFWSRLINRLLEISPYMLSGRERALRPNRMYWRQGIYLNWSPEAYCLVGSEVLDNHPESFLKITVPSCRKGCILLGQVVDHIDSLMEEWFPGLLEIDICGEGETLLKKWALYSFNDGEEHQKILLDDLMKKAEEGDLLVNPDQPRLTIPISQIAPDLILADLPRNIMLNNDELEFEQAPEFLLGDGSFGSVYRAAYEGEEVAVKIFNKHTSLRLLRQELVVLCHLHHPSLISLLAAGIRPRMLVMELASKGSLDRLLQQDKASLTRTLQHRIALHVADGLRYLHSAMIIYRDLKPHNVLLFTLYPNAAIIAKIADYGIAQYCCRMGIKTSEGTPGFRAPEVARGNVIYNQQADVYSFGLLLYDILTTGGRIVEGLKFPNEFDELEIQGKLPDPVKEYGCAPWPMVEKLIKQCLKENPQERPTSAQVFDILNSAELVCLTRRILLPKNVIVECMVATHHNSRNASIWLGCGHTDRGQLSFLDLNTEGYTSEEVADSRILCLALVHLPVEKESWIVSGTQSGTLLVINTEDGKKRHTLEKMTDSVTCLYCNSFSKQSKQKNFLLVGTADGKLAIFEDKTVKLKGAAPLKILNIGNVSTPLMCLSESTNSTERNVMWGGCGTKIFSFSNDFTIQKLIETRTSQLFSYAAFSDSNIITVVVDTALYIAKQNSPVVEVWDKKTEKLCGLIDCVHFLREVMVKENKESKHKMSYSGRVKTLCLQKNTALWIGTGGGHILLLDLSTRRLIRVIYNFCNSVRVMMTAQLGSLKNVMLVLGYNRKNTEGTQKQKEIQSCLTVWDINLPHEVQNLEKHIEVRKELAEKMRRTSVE

One may read the IC50 as the concentration that gives 50% inhibition. A higher IC50 goes with lower potency. `CNc1nc(Nc2ccc(F)c3[nH]ncc23)ncc1C(F)(F)F` [US20240174647, Example 27] registered an IC50 of under 50 nM.
